Type in all cases: cell-based
In assay [1] the test system is Wnt activity (Sp5-Luc reporter, TCF/LEF binding sites) in SW480 colon carcinoma cells. Nature of the assay: Wnt activity screening assay, Sp5-Luc reporter gene in SW480 cells. The conditions noted are these: Homo sapiens; for EC50: overnight incubation. From the text:
The screening assay for Wnt activity is described as follows. Reporter cell lines can be generated by stably transducing cancer cell lines (e.g., colon cancer) or primary cells (e.g., IEC-6 intestinal cells) with a lentiviral construct that includes a Wnt-responsive promoter driving expression of the firefly luciferase gene.
SW480 colon carcinoma cells were transduced with a lentiviral vector expressing luciferase with a human Sp5 promoter consisting of a sequence of eight TCF/LEF binding sites. SW480 cells stably expressing the Sp5-Luc reporter gene and a hygromycin resistance gene were selected by treatment with 150 μg/mL of hygromycin for 7 days. These stably transduced SW480 cells were expanded in cell culture and used for all further screening activities. Each compound was dissolved in DMSO as a 10 mM stock and used to prepare compound source plates. Serial dilution (1:3, 10-point dose-response curves starting from 10 μM) and compound transfer was performed using the ECHO 550 (Labcyte, Sunnyvale, Calif.) into 384-well white solid bottom assay plates (Greiner Bio-One) with appropriate DMSO backfill for a final DMSO concentration of 0.1%. For Sp5-Luc reporter gene assays, the cells were plated at 4,000 cells/well in 384-well plates with medium containing 1% fetal bovine serum and incubated overnight at 37° C. and 5% CO2. Following incubation, 20 μl of BrightGlo luminescence reagent (Promega) was added to each well of the 384-well assay plates. The plates were placed on an orbital shaker for 2 min and then luminescence was quantified using the Envision (Perkin Elmer) plate reader. Readings were normalized to DMSO only treated cells, and normalized activities were utilized for EC50 calculations using the dose-response log (inhibitor) vs. response-variable slope (four parameters) nonlinear regression feature available in GraphPad Prism 5.0 (or Dotmatics). For EC50 of >10 μM, the percent inhibition at 10 μM is provided.
(In general: In a reporter assay the amount or activity of a reporter protein is the signal.)

Another assay concerns SW480 colon cancer cells. Nature of the assay: Cell viability assay (CellTiter-Blue), SW480 cells. To be noted: Homo sapiens, 96 h, four days, CellTiter-Blue. The protocol: Representative compounds were screened using the following assay procedure to assess the effect on cell viability as described below.
Each compound was dissolved in DMSO as a 10 mM stock and used to prepare compound source plates. Serial dilution (1:3, 8-point dose-response curves from […]) and compound transfer was performed using the ECHO 550 (Labcyte, Sunnyvale, Calif.) into 96-well clear bottom, black-walled plates (Corning-Costar).
Approximately 2×10^3 SW480 colon cancer cells were seeded into each well and allowed to incubate in the presence or absence of compound for four days at 37° C./5% CO2. Eight replicates of DMSO-treated cells served as controls and cells treated with compound were performed in duplicate.
After incubation, 20 μL of CellTiter-Blue (Promega) was added to each well allowed to incubate for approximately 3 hours. This reagent was a buffered solution which contains resazurin, metabolically active cells were able to reduce rezarurin (blue) into resorufin (pink) which was highly fluorescent. This measured fluorescence was used as a readout for cell viability.
After incubation, the plates were read at Ex 560 nm Em 590 nm (Cytation 3, BioTek). Dose-response curves were generated and EC50 concentration values were calculated using non-linear regression curve fit in the GraphPad Prism (San Diego, Calif.) or Dotmatics' Studies Software (Bishops Stortford, UK). For EC50 of >10 μM, the percent inhibition at 10 μM is provided.
In general terms: Resazurin is reduced to fluorescent resorufin, in cell work by metabolically active cells.

Assay [2] concerns primary human fibroblasts derived from IPF patients (LL29 cells) treated with TGF-β1. Nature of the assay: Inhibition of fibrotic process, αSMA staining in TGF-β1 treated LL29 fibroblasts. To be noted: Fibroblast; for EC50: 96 h, TGF-β1 20 ng/mL, 4 days, % cells positive for αSMA. From the text: Representative compounds were screened using primary human fibroblasts (derived from IPF patients) treated with TGF-β1 to determine their ability to inhibit the fibrotic process.
Primary human fibroblasts derived from IPF patients (LL29 cells) [^1Xiaoqiu Liu, et. al., “Fibrotic Lung Fibroblasts Show Blunted Inhibition by cAMP Due to Deficient cAMP Response Element-Binding Protein Phosphorylation”, Journal of Pharmacology and Experimental Therapeutics (2005), 315(2), 678-687; ^2Watts, K. L., et. al., “RhoA signaling modulates cyclin D1 expression in human lung fibroblasts; implications for idiopathic pulmonary fibrosis”, Respiratory Research (2006), 7(1), 88] were obtained from American Type Culture Collection (ATCC) and expanded in F12 medium supplemented with 15% Fetal Bovine Serum and Penicillin/Streptomycin.
Each compound was dissolved in DMSO as a 10 mM stock and used to prepare compound source plates. Serial dilution (1:2, 11-point dose-response curves from […] to […]) and compound transfer was performed using the ECHO 550 (Labcyte, Sunnyvale, Calif.) into 384-well clear bottom assay plates (Greiner Bio-One) with appropriate DMSO backfill for a final DMSO concentration of 0.1%. LL29 cells are plated at 1,500 cells/well in 80 μL/well F12 medium supplemented with 1% Fetal Bovine Serum. One hour after addition of the cells, TGF-β1 (Peprotech; 20 ng/mL) was added to the plates to induce fibrosis (ref. 1 and 2 above). Wells treated with TGF-β1 and containing DMSO were used as controls. Cells were incubated at 37° C. and 5% CO2 for 4 days. Following incubation for 4 days, SYTOX green nucleic acid stain (Life Technologies [Thermo Fisher Scientific]) was added to the wells at a final concentration of 1 μM and incubated at room temperature for 30 min. Cells were then fixed using 4% formaldehyde (Electron Microscopy Sciences), washed 3 times with PBS followed by blocking and permeabilization using 3% Bovine Serum Albumin (BSA; Sigma) and 0.3% Triton X-100 (Sigma) in PBS. Cells were then stained with antibody specific to α-smooth muscle actin (aSMA; Abcam) (ref. 1 and 2 above) in 3% Bovine Serum Albumin (BSA; Sigma) and 0.3% Triton X-100 (Sigma) in PBS, and incubated overnight at 4° C. Cells were then washed 3 times with PBS, followed by incubation with Alexa Flor-647 conjugated secondary antibody (Life Technologies [Thermo Fisher Scientific]) and DAPI at room temperature for 1 hour. Cells were then washed 3 times with PBS and plates were sealed for imaging. aSMA staining was imaged by excitation at 630 nm and emission at 665 nm and quantified using the Compartmental Analysis program on the CellInsight CX5 (Thermo Scientific). Dead or apoptotic cells were excluded from analysis based on positive SYTOX green staining. % of total cells positive for aSMA were counted in each well and normalized to the average of 11 wells treated with TGF-β1 on the same plate using Dotmatics' Studies Software. The normalized averages (fold change over untreated) of 3 replicate wells for each compound concentration were used to create dose-responses curves and EC50 values were calculated using non-linear regression curve fit in the Dotmatics' Studies Software. For EC50 of >10 μM, the percent inhibition at 10 μM is provided.

Another assay concerns IL-6. Nature of the assay: IL-6 inhibition in LPS-stimulated THP-1 cells (HTRF). The conditions noted are these: Homo sapiens; for EC50: LPS 500 ng/mL, 22 hours, IL6 HTRF. The protocol: Human monocyte cell line (THP-1 cells; Catalog # TIB-202, ATCC, Manassas, Va.) were cultured in Roswell Park Memorial Institute (RPMI) 1640 Medium (Catalog #21870-100, Buffalo, N.Y.) with 1% L-glutamine, 1% HEPES, 1% Sodium Pyruvate, 2% Sodium Bicarbonate supplemented with 100 units/mL penicillin, 50 μg/mL streptomycin, 2-mercaptoethanol (0.05 mM) [basal medium] and 10% fetal bovine serum (Catalog #16140089, Life Technologies, Carlsbad, Calif.) at 37° C. and 5% CO2.
THP-1 cells were cultured in basal media with 1% FBS for 24 hours before the start of the assay. Each compound was dissolved in DMSO as a 10 mM stock and used to prepare compound source plates. Serial dilution (1:3, 10-point dose-response curves starting from 10 μM) and compound transfer was performed using the ECHO 550 (Labcyte, Sunnyvale, Calif.) into 384-well white low volume assay plates (Greiner Bio-One) with appropriate DMSO backfill for a final DMSO concentration of 0.1%. THP-1 cells were plated at 5000 cells/well in the 384-well plates and incubated at 37° C. for 2 h. 500 ng/mL of LPS was added after 2 hours and cells were incubated for another 22 hours at 37° C. Plates were spun in a centrifuge for 1 minute at […] and a mixture of anti-IL6 XL665, and anti-IL6 Cryptate diluted in reconstitution buffer (Cisbio Inc.) was added to each well. Following incubation for 3 hrs at room temperature, Homogeneous Time-Resolved Fluorescence (HTRF) was measured using the Envision (Perkin Elmer) at 665 nm and […]. The ratio of fluorescence at 665 nm to 620 nm was used as a readout for IL6 quantification. All samples were processed in duplicate. Readings were normalized to DMSO treated cells and normalized activities were utilized for EC50 calculations using the dose-response log (inhibitor) vs. response-variable slope (four parameters) nonlinear regression feature available in GraphPad Prism 5.0 (or Dotmatics). For EC50 of >10 μM, the percent inhibition at […] is provided.
For orientation: TR-FRET usually uses a lanthanide donor and a delayed reading to cut background.

For `c1cc(-c2cncc3[nH]c(-c4n[nH]c5ccc(-c6cncc(CNCC7CCCC7)c6)nc45)cc23)co1` [Compound 333, 1-Cyclopentyl-N-((5-(3-(4-(furan-3-yl)-1H-pyrrolo[2,3-c]pyridin-2-yl)-1H-pyrazolo[4,3-b]pyridin-5-yl)pyridin-3-yl)methyl)methanamine], in assay [1] (given for EC50 >10 μM, 10 μM, read-out: percent inhibition at 10 μM), the inhibition (in general, the drop in the measured response relative to a control, in per cent) at 10 µM amounted to 25.5%. Moreover, the EC50 (as a rule, the concentration that produces a half-maximal response) in assay [1] was over 10 µM; with SW480 colon cancer cells, 7840 nM; in assay [2], 1500 nM; with IL-6, 456 nM.

Take `Cc1ccncc1-c1ccc2[nH]nc(-c3cc4c(-c5cccs5)cncc4[nH]3)c2n1` [Compound 341, 5-(4-Methylpyridin-3-yl)-3-(4-(thiophen-2-yl)-1H-pyrrolo[2,3-c]pyridin-2-yl)-1H-pyrazolo[4,3-b]pyridine]: the EC50 in assay [1] was 4.07 µM; in the assay with SW480 colon cancer cells it was 4250 nM; in assay [2] it was 521 nM; in the assay on IL-6, 118 nM.

With `c1csc(-c2cncc3[nH]c(-c4n[nH]c5ccc(-c6ccncc6)nc45)cc23)c1` [Compound 354, 5-(Pyridin-4-yl)-3-(4-(thiophen-2-yl)-1H-pyrrolo[2,3-c]pyridin-2-yl)-1H-pyrazolo[4,3-b]pyridine], the EC50 in assay [1] was found to be 2.23 µM; with SW480 colon cancer cells, 1080 nM; in assay [2], 1180 nM; in the assay with IL-6 it was 5800 nM.

Turning to `CS(=O)(=O)NCc1cc(F)cc(-c2cncc3[nH]c(-c4n[nH]c5ccc(-c6cncc(CN7CCC(F)(F)C7)c6)nc45)cc23)c1` [Compound 502, N-(3-(2-(5-(5-((3,3-Difluoropyrrolidin-1-yl)methyl)pyridin-3-yl)-1H-pyrazolo[4,3-b]pyridin-3-yl)-1H-pyrrolo[2,3-c]pyridin-4-yl)-5-fluorobenzyl)methanesulfonamide], the concentration for a half-maximal effect (EC50) in assay [1] was 2.11 µM; in the assay with SW480 colon cancer cells, 3090 nM; in assay [2] it was over 10000 nM; with IL-6, 1760 nM. For the same compound, in assay [2] (given for EC50 >10 μM, TGF-β1, αSMA, 10 μM, read-out: percent inhibition at 10 μM), the inhibition at 10 µM was 25.4%.

Regarding `Fc1cccc(-c2cncc3[nH]c(-c4n[nH]c5ccc(-c6cncc(OCc7ccccc7)c6)nc45)cc23)c1` [Compound 518, 5-(5-(Benzyloxy)pyridin-3-yl)-3-(4-(3-fluorophenyl)-1H-pyrrolo[2,3-c]pyridin-2-yl)-1H-pyrazolo[4,3-b]pyridine], the EC50 in assay [1] is 1.28 µM; with SW480 colon cancer cells, 1120 nM; in assay [2], 1200 nM; in the assay on IL-6, over 10000 nM. For the same compound, the inhibition at 10 µM in the assay with IL-6 (given for EC50 >10 μM, LPS, IL6, at 10 M [sic], read-out: percent inhibition at 10 M) amounted to 35.5%.

Consider `c1ncc(-c2ccc3[nH]nc(-c4cc5c(N6CCCCC6)cncc5[nH]4)c3n2)cc1OC1CCCCC1` [Compound 607, 5-(5-(Cyclohexyloxy)pyridin-3-yl)-3-(4-(piperidin-1-yl)-1H-pyrrolo[2,3-c]pyridin-2-yl)-1H-pyrazolo[4,3-b]pyridine], for which the EC50 turned out to be 3.35 µM in assay [1], 498 nM in the assay on SW480 colon cancer cells, 199 nM in assay [2] and 2360 nM with IL-6.

For the compound `CN(C)CCOc1cncc(-c2ccc3[nH]nc(-c4cc5ccncc5[nH]4)c3n2)c1` [Compound 659, 2-((5-(3-(1H-Pyrrolo[2,3-c]pyridin-2-yl)-1H-pyrazolo[4,3-b]pyridin-5-yl)pyridin-3-yl)oxy)-N,N-dimethylethan-1-amine], the EC50 came out at 3.35 µM in assay [1], 1480 nM in the assay with SW480 colon cancer cells, 4130 nM in assay [2] and 1490 nM in the assay with IL-6.
